≈ marks a conversion by molar mass, not a printed value. Where “and” joins values, the source holds several entries; their conditions need not be identical. Equal values may be shown once. Read-outs that look alike come from different tables or passages of the source.
Experiments:
P. fal (3D37) = P. fal (3D37) growth inhibition EC50; assay type: cell-based; conditions: read-out: G) P. fal (3D37) EC50
E. faecium (ATCC 51559) = E. faecium (ATCC 51559) MIC/EC50; assay type: cell-based
S. aureus (ATCC 29213) = S. aureus (ATCC 29213) MIC/EC50; assay type: cell-based; conditions: Staphylococcus aureus, ATCC29213; S. aureus ATCC 29213; read-out: I) S. aureus (ATCC 29213) MIC/EC50, MIC
MetRS (T. brucei) = MetRS (T. brucei) (Trypanosoma brucei brucei, UniProt Q38C91); test: MetRS (T. brucei) ATP depletion assay using Kinase-Glo; assay type: biochemical
T. cruzi = T. cruzi growth inhibition EC50; assay type: cell-based
MetRS (S. aureus) = MetRS (S. aureus) (Staphylococcus aureus, UniProt Q5HII6); test: biochemical; conditions: ATP depletion, Kinase-Glo; read-out: H) MetRS (S. aureus) ATP depletion assay using Kinase-Glo with modified cpd dilution method, IC50
[1] = tested on: Giardia intestinalis (ATCC 50580); test: Giardia intestinalis (ATCC 50580) growth inhibition EC50; assay type: cell-based
MetRS (Giardia) = MetRS (Giardia) (Giardia intestinalis, UniProt A8BY75); test: biochemical; conditions: read-out: D) MetRS (Giardia) aminoacylation assay with modified cpd dilution method IC50
L. amaz = L. amaz growth inhibition EC50; assay type: cell-based; conditions: read-out: F) L. amaz EC50
E. faecalis (ATCC 29212) = E. faecalis (ATCC 29212) MIC/EC50; assay type: cell-based
T. brucei = test: Growth inhibition assay of T. brucei cell cultures (Alamar Blue, 48 h); assay type: cell-based
[2] = tested on: S. aureus MRSA (ATCC 43300); test: S. aureus MRSA (ATCC 43300) MIC/EC50; assay type: cell-based; conditions: Staphylococcus aureus; S. aureus MRSA ATCC 43300; read-out: J) S. aureus MRSA (ATCC 43300) MIC/EC50, MIC
[3] = Trypanosoma cruzi; read-out: C) T. cruzi EC50
[4] = Giardia duodenalis, ATCC50580; read-out: E) Giardia intestinalis (ATCC 50580) EC50
[5] = read-out: E) Giardia intestinalis (ATCC 50580) EC50
[6] = Trypanosoma brucei; read-out: B) T. brucei EC50

Sequence of MetRS (T. brucei) (Q38C91 entry or part of it): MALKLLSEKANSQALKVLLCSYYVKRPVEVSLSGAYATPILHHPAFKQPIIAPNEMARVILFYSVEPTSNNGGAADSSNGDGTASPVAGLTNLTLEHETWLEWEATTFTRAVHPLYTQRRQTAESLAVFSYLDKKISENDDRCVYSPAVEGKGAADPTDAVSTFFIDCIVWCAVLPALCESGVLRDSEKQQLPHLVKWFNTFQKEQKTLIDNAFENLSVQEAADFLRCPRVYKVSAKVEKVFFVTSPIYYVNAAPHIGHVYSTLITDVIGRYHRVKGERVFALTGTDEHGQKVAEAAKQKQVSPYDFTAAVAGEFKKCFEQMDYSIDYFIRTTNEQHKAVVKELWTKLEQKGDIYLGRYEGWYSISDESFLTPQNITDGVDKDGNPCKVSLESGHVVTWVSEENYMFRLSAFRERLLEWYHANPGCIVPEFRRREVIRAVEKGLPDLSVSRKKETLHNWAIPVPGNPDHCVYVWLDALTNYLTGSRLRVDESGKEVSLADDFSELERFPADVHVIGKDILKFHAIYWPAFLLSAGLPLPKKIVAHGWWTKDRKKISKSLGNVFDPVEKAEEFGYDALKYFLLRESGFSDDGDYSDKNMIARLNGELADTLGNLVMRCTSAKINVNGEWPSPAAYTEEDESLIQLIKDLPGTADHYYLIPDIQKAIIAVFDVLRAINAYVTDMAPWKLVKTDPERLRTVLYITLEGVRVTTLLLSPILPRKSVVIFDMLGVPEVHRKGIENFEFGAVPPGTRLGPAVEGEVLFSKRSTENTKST
Sequence of MetRS (Giardia) (A8BY75 entry or part of it): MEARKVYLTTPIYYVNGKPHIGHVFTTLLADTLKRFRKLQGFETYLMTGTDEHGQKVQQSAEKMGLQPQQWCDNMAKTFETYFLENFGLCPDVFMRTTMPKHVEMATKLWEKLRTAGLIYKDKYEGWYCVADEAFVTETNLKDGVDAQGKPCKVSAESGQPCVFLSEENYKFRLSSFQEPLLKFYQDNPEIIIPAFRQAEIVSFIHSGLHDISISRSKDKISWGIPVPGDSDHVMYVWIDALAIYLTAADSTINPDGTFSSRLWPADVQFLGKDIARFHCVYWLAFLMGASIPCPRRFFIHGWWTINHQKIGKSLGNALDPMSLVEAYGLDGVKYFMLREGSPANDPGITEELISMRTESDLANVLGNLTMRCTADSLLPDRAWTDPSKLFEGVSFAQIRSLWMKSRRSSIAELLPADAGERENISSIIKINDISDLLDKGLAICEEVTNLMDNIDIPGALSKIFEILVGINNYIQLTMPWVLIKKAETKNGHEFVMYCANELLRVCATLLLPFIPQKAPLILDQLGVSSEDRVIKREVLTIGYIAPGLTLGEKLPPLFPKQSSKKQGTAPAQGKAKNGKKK
Sequence of MetRS (S. aureus) (Q5HII6 whole entry): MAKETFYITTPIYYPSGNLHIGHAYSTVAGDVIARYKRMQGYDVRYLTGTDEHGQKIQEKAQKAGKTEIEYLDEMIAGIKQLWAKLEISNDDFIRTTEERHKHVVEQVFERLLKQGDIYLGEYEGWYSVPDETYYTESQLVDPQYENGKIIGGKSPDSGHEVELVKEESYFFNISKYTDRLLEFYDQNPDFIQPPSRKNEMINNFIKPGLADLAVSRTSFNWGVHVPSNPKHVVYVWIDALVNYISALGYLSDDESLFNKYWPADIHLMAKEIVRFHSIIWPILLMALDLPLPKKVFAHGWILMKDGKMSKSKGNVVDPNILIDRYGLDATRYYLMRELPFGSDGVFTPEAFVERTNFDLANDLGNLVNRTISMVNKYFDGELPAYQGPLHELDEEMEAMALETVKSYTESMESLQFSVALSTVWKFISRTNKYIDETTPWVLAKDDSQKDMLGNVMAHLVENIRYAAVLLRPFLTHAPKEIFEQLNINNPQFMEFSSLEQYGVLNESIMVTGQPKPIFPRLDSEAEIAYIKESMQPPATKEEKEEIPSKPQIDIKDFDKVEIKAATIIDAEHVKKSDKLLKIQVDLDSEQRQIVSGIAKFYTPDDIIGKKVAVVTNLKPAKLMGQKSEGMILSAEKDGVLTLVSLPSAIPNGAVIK

Structure (SMILES) | EC50 (P. fal (3D37)) [nM] | L) E. faecium (ATCC 51559) MIC/EC50, MIC (E. faecium (ATCC 51559)) [µg/mL] | MIC (S. aureus (ATCC 29213)) [µg/mL] | IC50 (MetRS (T. brucei)) [nM] | EC50 (T. cruzi; [3]) [nM] | EC50 (T. cruzi; read-out: C) T. cruzi EC50) [nM] | IC50 (MetRS (S. aureus)) [nM] | EC50 [1, 4] [nM] | EC50 [1, 5] [nM] | IC50 (MetRS (Giardia)) [nM] | EC50 (L. amaz) | K) E. faecalis (ATCC 29212) MIC/EC50, MIC (E. faecalis (ATCC 29212)) | EC50 (T. brucei; [6]) [nM] | EC50 (T. brucei; read-out: B) T. brucei EC50) [nM] | MIC [2] [µg/mL] | K) E. faecalis (ATCC 29212) MIC/EC50, MIC (ug/ml) (E. faecalis (ATCC 29212))
Fc1ccc2nc(NCCCNCc3cc(Cl)cc(Cl)c3)[nH]c2n1 [Compound 1614, [(3,5-dichlorophenyl)methyl][3-({5-fluoro-3H-imidazo[4,5-b]pyridin-2-yl}amino)propyl]amine] | 7710 | 1.25 | 1.25 (≈ 3.39 µM) | 16 | 39.5 | 35.7 | 37 | 3420 | 1980 | 9 | > 1000 nM | 0.625 µg/mL |  |  |  | 
Clc1cc(Cl)cc(CNCCCNc2nc3ncccc3[nH]2)c1 [Compound 1575, N1-(3,5-dichlorobenzyl)-N3-(1H-imidazo[4,5-b]pyridin-2-yl)propane-1,3-diamine] | 7010 | 0.625 |  | 9 | 193 |  | 35 |  |  | 36 | > 10000 nM |  | 9.36 | 7.64 |  | 
C[C@@H](CNCc1cc(Cl)cc(Cl)c1)CNc1nc2nc(F)ccc2[nH]1 [Compound 1673, [(3,5-dichlorophenyl)methyl][(2S)-3-({5-fluoro-3H-imidazo[4,5-b]pyridin-2-yl}amino)-2-methylpropyl]amine] |  |  | 5 (≈ 13.1 µM) | 11 | 1540 |  | 113 |  |  |  | 7860 nM and 5710 nM and 8280 nM |  |  |  | 5 (≈ 13.1 µM) | 
O=C(/C=C/Oc1ccc(Cl)cc1Cl)NCc1nc2ccccc2[nH]1 [Compound 1729, (2E)-N-(1H-1,3-benzodiazol-2-ylmethyl)-3-(2,4-dichlorophenoxy)prop-2-enamide] |  | >10 |  | 17 | > 5000 |  | 27 |  |  |  | > 1000 nM |  | 119 |  |  | 
Fc1ccc2nc(NCCCN[C@@H]3CCOc4c(Cl)cc(Cl)cc43)[nH]c2n1 [Compound 1709, (4R)-6,8-dichloro-N-[3-({5-fluoro-3H-imidazo[4,5-b]pyridin-2-yl}amino)propyl]-3,4-dihydro-2H-1-benzopyran-4-amine] |  | >0.04 |  | 8 | > 4.57 | 5.05 | 19 | 664 | 492 | 2 | 1300 nM and 1130 nM |  |  |  |  | 
Clc1cc(Cl)cc(Cn2cc(Cc3nc4ccccc4[nH]3)nn2)c1 [Compound 1753, 2-({1-[(3,5-dichlorophenyl)methyl]-1H-1,2,3-triazol-4-yl}methyl)-1H-1,3-benzodiazole] |  | >10 |  | 73 | > 5000 |  | 1100 |  |  |  |  |  | 2330 |  |  | 
C[C@@H](CNCc1cc(Cl)cc(Cl)c1)CNc1nc2cccnc2[nH]1 [Compound 1655, (S)-N1-(3,5-dichlorobenzyl)-N3-(1H-imidazo[4,5-b]pyridin-2-yl)-2-methylpropane-1,3-diamine] |  |  | 10 (≈ 27.5 µM) | 43 | 709 |  | 171 |  |  |  | 6740 nM |  | 11.3 | 7.97 | 10 (≈ 27.5 µM) | 
O=C(Cc1cc(Cl)cc(Cl)c1)N1CCCC(c2nc3cc(Cl)ccc3[nH]2)C1 (stereo not shown) [Compound 1734, 1-(3-(5-chloro-1H-benzo[d]imidazol-2-yl)piperidin-1-yl)-2-(3,5-dichlorophenyl) ethanone] |  |  | > 10 | 60 | 4910 |  | 2440 |  |  |  |  |  | 1400 |  | > 10 | 
O=c1c(NCc2nc3ccccc3[nH]2)c(NCc2ccc(Cl)cc2Cl)c1=O [Compound 1769, 3-[(H-Benzoimidazol-2-ylmethyl)-amino]-4-(2,4-dichloro-benzylamino)-cyclobut-3-ene-1,2-dione] |  |  | > 10 | 11 | > 5000 |  | 95 |  |  |  |  |  | 1070 |  | > 10 | 
Fc1ccc2nc(NCCCN[C@H]3CCOc4c(Cl)cc(Cl)cc43)[nH]c2n1 [Compound 1711, (4S)-6,8-dichloro-N-[3-({5-fluoro-3H-imidazo[4,5-b]pyridin-2-yl}amino)propyl]-3,4-dihydro-2H-1-benzopyran-4-amine] |  | >10 |  | 752 |  |  | 368 |  |  |  |  |  | 2820 |  |  | >10, >10 ug/ml
O=C(CCOc1ccc(Cl)cc1Cl)NCc1nc2ccccc2[nH]1 [Compound 1683, N-(1H-1,3-benzodiazol-2-ylmethyl)-3-(2,4-dichlorophenoxy)propanamide] |  |  |  | 74 | > 10000 |  |  | > 2000 |  | > 1000 | > 1000 nM |  | 8830 |  |  | 
O=C(/C=C/Oc1ccc(Cl)cc1Cl)NCc1nc2ccc(F)nc2[nH]1 [Compound 1768, 3-(2,4-Dichloro-phenoxy)-N-(5-fluoro-3H-imidazo[4,5-b]pyridin-2-ylmethyl)-acrylamide] |  |  | > 10 | 18 | 1690 |  | 30 |  |  |  | > 1000 nM |  | 70.2 |  | > 10 | 
Clc1cc(Cl)cc(CNCCc2nc3ccc(Cl)cc3[nH]2)c1 [Compound 1767, [2-(6-chloro-1H-1,3-benzodiazol-2-yl)ethyl][(3,5-dichlorophenyl)methyl]amine] |  |  | > 10 | 51 | 2930 |  | > 1000 |  |  |  |  |  | 627 |  | 10 (≈ 28.2 µM) | 
Fc1ccc2nc(NCCCN[C@@H]3CCNc4c(Cl)cc(Cl)cc43)[nH]c2n1 [Compound 1717, (4R)-6,8-dichloro-N-[3-({5-fluoro-3H-imidazo[4,5-b]pyridin-2-yl}amino)propyl]-1,2,3,4-tetrahydroquinolin-4-amine] |  | >0.04 | 0.157 (≈ 0.384 µM) | 28 | > 4.57 | 3.72 | 28 | 590 | 316 | 3 | 2850 nM | > 0.04 µg/mL and 0.079 µg/mL |  |  | 0.157 (≈ 0.384 µM) | 

Reference: patent publication US10913736B2 (UNIVERSITY OF WASHINGTON, priority 2014, dated 2021)
